± gives the standard deviation of the averaged measurements.
How the values were obtained:
Settings in all cases: 72 h
[1] = tested on: U2OS; test: relative viability EC50 (midpoint between 100% and the lowest measured viability); higher = less toxic
[2] = tested on: Vero E6; test: as above
[3] = tested on: HepG2; test: as above
[4] = tested on: Calu-3; test: as above
[5] = tested on: Caco-2; test: as above
[6] = tested on: U2OS; test: drug sensitivity score (DSS) for viability; higher = more toxic; extreme values may be limits of the assay
[7] = tested on: Vero E6; test: as above
[8] = tested on: HepG2; test: as above
[9] = tested on: Calu-3; test: as above
[10] = tested on: Caco-2; test: as above
[11] = tested on: U2OS; test: cell viability relative to DMSO; higher = less toxic
[12] = tested on: Vero E6; test: as above
[13] = tested on: HepG2; test: as above
[14] = tested on: Calu-3; test: as above
[15] = tested on: Caco-2; test: as above

Structure (SMILES) | relative viability EC50 [1] [µM] | relative viability EC50 [2] [µM] | relative viability EC50 [3] [µM] | relative viability EC50 [4] [µM] | relative viability EC50 [5] [µM] | drug sensitivity score [6] | drug sensitivity score [7] | drug sensitivity score [8] | drug sensitivity score [9] | drug sensitivity score [10] | cell viability ([11]; 1 nM) [%] | cell viability ([11]; 10 nM) [%] | cell viability ([11]; 100 nM) [%] | cell viability ([11]; 1000 nM) [%] | cell viability ([11]; 10000 nM) [%] | cell viability ([12]; 1 nM) [%] | cell viability ([12]; 10 nM) [%] | cell viability ([12]; 100 nM) [%] | cell viability ([12]; 1000 nM) [%] | cell viability ([12]; 10000 nM) [%] | cell viability ([13]; 1 nM) [%] | cell viability ([13]; 10 nM) [%] | cell viability ([13]; 100 nM) [%] | cell viability ([13]; 1000 nM) [%] | cell viability ([13]; 10000 nM) [%] | cell viability ([14]; 1 nM) [%] | cell viability ([14]; 10 nM) [%] | cell viability ([14]; 100 nM) [%] | cell viability ([14]; 1000 nM) [%] | cell viability ([14]; 10000 nM) [%] | cell viability ([15]; 1 nM) [%] | cell viability ([15]; 10 nM) [%] | cell viability ([15]; 100 nM) [%] | cell viability ([15]; 1000 nM) [%] | cell viability ([15]; 10000 nM) [%]
C[C@]12CC[C@@H](O)C[C@H]1CC[C@@H]1[C@@H]2CC[C@]2(C)C(=O)CC[C@@H]12 [3-alpha-hydroxy-5-beta-androstan-17-one] | > 10 | > 10 | > 10 | > 10 | > 10 | 0 | 0 | 0.233 ± 0.4 | 0 | 0.233 ± 0.4 | 102 ± 2.1 | 97.8 ± 1.6 | 102 ± 2.6 | 98.6 ± 2.8 | 99.9 ± 3.2 | 99.8 ± 2.9 | 101 ± 1.3 | 103 ± 3.8 | 103 ± 2.3 | 94.3 ± 1.5 | 101 ± 8.8 | 96.6 ± 5.6 | 102 ± 5.1 | 104 ± 7.5 | 87.4 ± 9.7 | 99.6 ± 4.8 | 97.4 ± 4 | 96.1 ± 3.2 | 97.8 ± 6.8 | 101 ± 3.2 | 97.8 ± 5 | 104 ± 14 | 97.6 ± 4.1 | 98.8 ± 3.4 | 92.9 ± 15
O=C(O)C(=O)CBr [3-bromopyruvate] | > 10 | > 10 | > 10 | > 10 | > 10 | 0 | 0 | 0 | 0 | 0 | 97.7 | 99.4 | 98 | 102 | 104 | 96.7 | 96.6 | 96.9 | 96.7 | 92.8 | 104 | 92.1 | 100 | 99.7 | 101 | 102 | 98 | 105 | 98.9 | 94.2 | 95.5 | 97.1 | 96.5 | 97.2 | 97.9
CCCN[C@@H]1CCc2c(OC)cccc2[C@@H]1C [AJ76-(+)] | > 10 | > 10 | > 10 | > 10 | > 10 | 0 | 0 | 0 | 0 | 0 | 102 | 105 | 95.7 | 95.9 | 98.8 | 97.8 | 104 | 96.6 | 99.6 | 91.3 | 88.5 | 100 | 103 | 103 | 94 | 100 | 95.9 | 96.8 | 96 | 114 | 104 | 97.8 | 96.4 | 86.8 | 96.7
COc1cnc(-c2ccc(Cn3c(CC(C)(C)C(=O)O)c(SC(C)(C)C)c4cc(OC[C@@H]5Cc6ccccc6N5C(C)=O)ccc43)cc2)nc1 [AM679] | > 10 | > 10 | > 10 | > 10 | > 10 | 0 | 0 | 0 | 0 | 0 | 102 | 99.8 | 99.7 | 100 | 98.1 | 114 | 105 | 106 | 99.9 | 128 | 103 | 104 | 101 | 102 | 93.4 | 101 | 95.4 | 101 | 109 | 107 | 102 | 94 | 99 | 97 | 92.4
Cc1nc2cnc3ccc(C#Cc4cccnc4)cc3c2n1-c1ccc(C(C)(C)C#N)cc1 [BAG-956] | 0.202 | 0.41 | 0.604 | 0.144 | 0.139 | 15.8 | 10.8 | 7.9 | 16.3 | 15.3 | 97.4 | 101 | 88.8 | 24.9 | 23.8 | 104 | 103 | 97.5 | 42.6 | 35.3 | 104 | 103 | 93.3 | 62.3 | 41.4 | 92.7 | 96.2 | 79 | 27.7 | 30.2 | 97.8 | 101 | 79.7 | 33.5 | 33.3
CC(C)n1c(=O)n(C(=O)N[C@H]2C[C@H]3CC[C@@H](C2)N3C)c2ccccc21 [BIMU-8] | > 10 | > 10 | > 10 | > 10 | > 10 | 0 | 0 | 0 | 0 | 0 | 102 | 103 | 99.1 | 101 | 99.1 | 105 | 99.6 | 99.6 | 98.9 | 94.7 | 93.2 | 95.2 | 90.5 | 93.2 | 97 | 96.4 | 105 | 96.3 | 92.3 | 93.9 | 99 | 105 | 98.1 | 102 | 96.9
CN1C(=O)N(c2cc(Cl)cc(Cl)c2)C(=O)[C@@]1(C)Cc1ccc(Br)cc1 [BIRT-377] | > 10 | > 10 | > 10 | > 10 | > 10 | 0 | 0 | 0 | 0 | 0.3 | 98.1 | 100 | 95.2 | 99.2 | 88.8 | 98.7 | 96.8 | 104 | 95.3 | 101 | 105 | 101 | 104 | 86.6 | 103 | 98.4 | 92.8 | 91.1 | 105 | 92.7 | 101 | 98 | 97.9 | 102 | 83.4
CC(C)(C)c1ccc2cc(C#N)c(C#N)cc2c1 [BRD9876] | > 10 | > 10 | > 10 | > 10 | > 10 | 0 | 0 | 0 | 0.2 | 0.1 | 101 | 106 | 95.6 | 99.8 | 94.9 | 98.5 | 104 | 99.2 | 99.4 | 97.8 | 97.7 | 98.8 | 90.7 | 89.9 | 97.6 | 103 | 100 | 90.2 | 95.8 | 85.9 | 99 | 98.6 | 102 | 96 | 89
CC1=NN(c2ccc(C(=O)O)cc2)C(=O)C1=Cc1ccc(-c2cc(C)c(C)cc2[N+](=O)[O-])o1 [C646] | > 10 | > 10 | > 10 | > 10 | > 10 | 0 | 0 | 0 | 0.4 | 0 | 102 | 95.6 | 98.8 | 94.9 | 92.9 | 97.3 | 102 | 100 | 100 | 99 | 90 | 102 | 92.5 | 93.7 | 90.5 | 106 | 98.1 | 89.3 | 89.6 | 98.9 | 87.3 | 90.5 | 101 | 94 | 98.1
Nc1nc(-c2ccc(Cl)c(Cl)c2)c(-c2ccncc2)s1 [CGH2466] | > 10 | > 10 | > 10 | > 10 | > 10 | 0 | 0 | 0 | 0 | 0 | 96.5 | 99.9 | 96.3 | 100 | 90.1 | 87.1 | 95.3 | 100 | 93.9 | 93.9 | 96.5 | 104 | 117 | 106 | 112 | 109 | 100 | 107 | 95.7 | 107 | 91.8 | 86.1 | 102 | 99.7 | 95.9
CN1CCN(c2ccc(/C=C(\C#N)c3ccccc3Br)cc2)CC1 [DG-172] | > 10 | > 10 | > 10 | > 10 | > 10 | 0 | 0 | 0.3 | 0 | 0.2 | 105 | 101 | 106 | 100 | 94.8 | 106 | 108 | 104 | 105 | 91.3 | 101 | 99.9 | 104 | 105 | 82.1 | 114 | 102 | 104 | 100 | 90.6 | 102 | 99.5 | 100 | 95.5 | 88.5
Cc1nc2c(c(=O)[nH]1)CSCC2 [DR-2313] | > 10 | > 10 | > 10 | > 10 | > 10 | 0 | 0 | 0 | 0 | 0 | 102 | 99.1 | 99.9 | 97.1 | 99.1 | 98 | 100 | 97.8 | 94.6 | 108 | 99.8 | 101 | 98.3 | 108 | 94.6 | 105 | 92.2 | 95 | 95.5 | 91.9 | 92.6 | 88.9 | 90.1 | 95.7 | 97.4
CC(C)C[C@H](NC(=O)OCc1ccccc1)C(=O)N[C@@H](C[C@@H]1CCNC1=O)C(O)S(=O)(=O)O (stereo not given in full) [GC376 sodium] | > 10 | > 10 | > 10 | > 10 | > 10 | 0 | 0 | 0 | 0 | 0 | 90.4 | 101 | 97.3 | 100 | 108 | 90.3 | 104 | 93.2 | 102 | 108 | 101 | 99.8 | 97 | 102 | 95.4 | 105 | 92.2 | 99.9 | 104 | 96.1 | 97.2 | 92.6 | 96.7 | 92.7 | 108
O=C(O)c1ccc(N2N=C(Cc3ccccc3)/C(=C\c3ccc(-c4ccccc4F)o3)C2=O)cc1 [GS-143] | > 10 | > 10 | > 10 | > 10 | > 10 | 0 | 0.3 | 0 | 0 | 0.2 | 105 | 106 | 101 | 104 | 98.8 | 106 | 99 | 99.9 | 101 | 82.7 | 107 | 110 | 95.4 | 95.8 | 105 | 102 | 99.1 | 101 | 105 | 99.8 | 103 | 104 | 99.2 | 93.8 | 87.5

— the supplement of paper PMC13380429
